In patent EP4782453A1 (Beyang Therapeutics Co., Ltd., priority 2023, dated 2025):
Where two headings read alike, the source gives them in different places.

Assays:
[1] = target: T1, Menin-MLL (Homo sapiens, UniProt O00255); experiment: Inhibitory activity against Menin-MLL binding (fluorescence polarization); settings: 150 nM His-Menin, 15 nM FITC-MLL, 25°C for 60 min
T1 construct: His-Menin (M1-L615 end); purchased BIORTUS BP9210
T1 sequence (O00255 1-615 isoform O00255-1): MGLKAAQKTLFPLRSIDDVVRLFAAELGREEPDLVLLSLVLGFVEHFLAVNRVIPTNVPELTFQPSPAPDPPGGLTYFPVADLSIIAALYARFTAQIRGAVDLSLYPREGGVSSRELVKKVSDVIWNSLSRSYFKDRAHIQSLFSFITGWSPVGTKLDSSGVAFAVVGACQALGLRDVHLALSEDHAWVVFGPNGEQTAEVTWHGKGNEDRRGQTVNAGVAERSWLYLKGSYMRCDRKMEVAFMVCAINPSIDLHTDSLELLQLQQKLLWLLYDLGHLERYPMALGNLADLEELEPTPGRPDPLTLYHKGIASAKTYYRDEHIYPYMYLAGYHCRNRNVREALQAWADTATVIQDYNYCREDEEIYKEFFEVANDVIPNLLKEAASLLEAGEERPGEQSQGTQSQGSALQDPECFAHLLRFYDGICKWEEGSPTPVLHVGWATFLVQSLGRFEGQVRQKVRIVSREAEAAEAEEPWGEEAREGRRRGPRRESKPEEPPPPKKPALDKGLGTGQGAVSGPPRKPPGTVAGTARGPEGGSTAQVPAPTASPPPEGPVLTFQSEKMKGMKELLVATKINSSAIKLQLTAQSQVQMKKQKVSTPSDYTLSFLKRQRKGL
Outline: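 His-Menin (M1-L615, 150 nM) preincubated with compound 15 min at 25 °C in HEPES pH 7.5, 50 mM NaCl, 1 mM DTT, 0.01% BSA, then 15 nM FITC-MLL4-43 peptide added for 60 min at 25 °C. Fluorescence polarization read; IC50 from 4-parameter logistic fit, duplicates.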

[2] = tested on: MOLM-13 (carrying MLL-AF9); experiment: Inhibition of proliferation of human tumor cells (Alamar Blue, 7 days), MOLM-13; type: cell-based; settings: Homo sapiens, 168 h, MOLM-13 cells (carrying MLL-AF9), method calls the value GI50
Excerpt: Experimental Example 2: Evaluation of Inhibitory Activity of Compounds Against Proliferation of Human Tumor Cells
• Human acute lymphoblastic leukemia cells MV-4-11, purchased from American Type Culture Collection, Catalog Number: CRL-9591; • Human acute myeloid leukemia cells MOLM-13, purchased from COBIOER BIOSCIENCES CO., LTD, Catalog Number: CBP60678; • Human acute myeloid leukemia cells KG-1a, purchased from American Type Culture Collection, Catalog Number: CCL-246.1; • Inverted Microscope, purchased from Olympus Tokyo; • Countess™ Automated Cell Counter, purchased from Invitrogen, Model: C10281; and • Multilabel Reader, purchased from Bio-Tek, Model: Synergy HT.
MV-4-11 cells were cultured in an IMDM medium containing 10% fetal bovine serum, KG-a cells were cultured in an IMDM medium containing 20% fetal bovine serum, or MOLM-13 cells were cultured in an RPMI-1640 medium containing 20% fetal bovine serum, each supplemented with 100 U·mL^-1 penicillin and 100 µg·mL^-1 streptomycin. These cells were cultured at 37°C with 5% CO2. The suspensions of individual cell lines were prepared in their respective media and seeded into 96-well plates at a density of 4,000 cells/well for MV-4-11 and MOLM-13 cells, or 3,000 cells/well for KG-1a cells. On the day of the experiment, a compound stock solution was diluted in a 3-fold or 4-fold gradient using DMSO. Each gradient-diluted stock solution was then further diluted 250-fold with a complete medium to prepare a series of working solutions at different concentrations. Subsequently, 100 µL of working solution (containing a 2-fold concentration series of the test compound) was added to each well, with duplicate wells set up for each concentration.
Seven days after compound addition (on Day 7), an Alamar Blue assay reagent (MCE, HY-111391 / CS-0040317) was added to measure the fluorescence intensity in each well. Wells containing the cells in the growth medium supplemented with 0.1% DMSO (Day 7) served as high-read control wells. The readouts from the wells containing the cells in the growth medium supplemented with 0.1% DMSO on the day of compound addition (Day 0) served as low-reading control well. GraphPad Prism software was used to calculate the concentration required to inhibit 50% of cell proliferation (GI50), which serves as a cell proliferation inhibition activity index.

[3] = fluorescence polarization, read-out: Menin-MLL IC50
[4] = Menin-MLL IC50, fluorescence polarization

Structure (SMILES) | IC50 [1, 3] | IC50 [2] | IC50 [1, 4]
CCN(C(=O)c1cc(F)ccc1-c1cc(C2CN([C@H](CCCN3CCN(C)[C@H](COC)C3)C(C)C)C2)cn2c(C)ncc12)C(C)C [Example 509] | 1.1 nM | 7.2 nM | 
CCN(C(=O)c1cc(F)ccc1-c1cc(C2CN([C@H](CCCN3CCNCC3)C(C)C)C2)cn2c(C)ncc12)C(C)C [Example 472] | 1.5 nM | 24 nM | 
CCN(C(=O)c1cc(F)ccc1-c1cc(C2CN([C@H](CCCN3CCN(CCC#N)CC3)C(C)C)C2)cn2c(C)ncc12)C(C)C [Example 489] | 2 nM | 5.9 nM | 
CCN(C(=O)c1cc(F)ccc1-c1cc(C2CN([C@H](CCCN3CCN(CCF)CC3)C(C)C)C2)cn2c(C)ncc12)C(C)C [Example 395] | 2 nM | 6.1 nM | 
CCN(C(=O)c1cc(F)ccc1-c1cc(C2CN(C(CCCN3CCN(C)C(COC)C3)C(C)C)C2)cn2c(C)ncc12)C(C)C (stereo not drawn) [Example 508] | 1.1 nM | 11 nM | 
Cc1nc(F)c2c(-c3ccc(F)cc3C(=O)N3CCOC[C@H]3C)cc(C3CN([C@H](CCCN4CCN(CCF)CC4)C(C)C)C3)cn12 [Example 361] | 5.2 nM | 3.3 nM | 
Cc1nc(F)c2c(-c3ccc(F)cc3C(=O)N3CCOC[C@H]3C)cc(C3CN([C@H](CCCN4CC5CC(C4)N5C)C(C)C)C3)cn12 [Example 349] | 4 nM | 16.5 nM | 
CCN(C(=O)c1cc(F)ccc1-c1cc(C2CN([C@H](CN3CCS(=O)(=O)CC3)C(C)C)C2)cn2c(C)ncc12)C(C)C [Example 441-1, 2-(6-{1-[(2S)-1-(1,1-dioxo-thiomorpholin-4-yl)-3-methylbutan-2-yl]azacyclobutan-3-yl}-3-methylimidazo[1,5-a]pyridin-8-yl)-N-ethyl-5-fluoro-N-(isopropyl)benzamide] | 11 nM | 75 nM | 
Cc1cncc2c(-c3ccc(F)cc3C(=O)N(C)C(C)C)cc(CC3CN([C@H](CCCN4CCN(CCO)CC4)C(C)C)C3)n12 [Example 477-1, 5-fluoro-2-[6-({1-[(3R)-6-[4-(2-hydroxylethyl)piperazin-1-yl]-2-methylhexan-3-yl]azacyclobutan-3-yl}methyl)-4-methylpyrrolo[1,2-a]pyrazin-8-yl]-N-methyl-N-(isopropyl)benzamide] | 1.1 nM | 10 nM | 
CCN(C(=O)c1cc(F)ccc1-c1cc(C2CN([C@H](CN3CCN(CCOC)CC3)C(C)C)C2)cn2c(C)ncc12)C(C)C [Example 430] | 8.4 nM | 46 nM | 
CCN(C(=O)c1cc(F)ccc1-c1cc(C2CN([C@@H](CCCN3CCN(C)CC3)C(C)C)C2)cn2c(C)ncc12)C(C)C [Example 310-1, N-ethyl-5-fluoro-2-(3-methyl-6-{1-[(3S)-2-methyl-6-(4-methylpiperazin-1-yl)hexan-3-yl]azacyclobutan-3-yl}imidazo[1,5-a]pyridin-8-yl)-N-(isopropyl)benzamide] | 31 nM |  | 
C=C1CN[C@H](C(=O)N2CC(c3cc(-c4ccc(F)cc4C(=O)N(CC)C(C)C)c4c(F)nc(C)n4c3)C2)C1 [Example 130] | 62 nM |  | 
CC(=O)N1CCN(CCC[C@H](C(C)C)N2CC(c3cc(-c4ccc(F)cc4C(=O)N4CCOC[C@H]4C)c4c(F)nc(C)n4c3)C2)CC12CC2 [Example 340] | 33 nM |  | 
CCN(C(=O)c1cc(F)ccc1-c1cc(C2CCN(C[C@]3(F)CC[C@@H](NS(=O)(=O)CC)CC3)C2)cn2c(C)ncc12)C(C)C (stereo partly drawn) [Compound 52, N-ethyl-5-fluoro-2-[3-methyl-6-(1-{[(1s,4s)-4-ethanesulfonamido-1-fluorocyclohexyl]methyl}pyrrolidin-3-yl)imidazo[1,5-a]pyridin-8-yl]-N-(isopropyl)benzamide] |  |  | 28.5 nM
COCCN(C)CCCC(C(C)C)N1CC(c2cc(-c3ccc(F)cc3C(=O)N(CC(F)F)C(C)C)c3cnccn23)C1 (stereo not drawn) [Example 147, N-(2,2-difluoroethyl)-5-fluoro-2-[6-(1-{6-[(2-methoxyethyl)(methyl)amino]-2-methylhexan-3-yl}azacyclobutan-3-yl)pyrrolo[1,2-a]pyrazin-8-yl]-N-(isopropyl)benzamide] | 140 nM |  | 
Cc1nc(F)c2c(-c3ccc(F)cc3C(=O)N3CCOC[C@H]3C)cc(C3CN([C@@H](CN4CCNCC4)C(C)C)C3)cn12 [Example 367-1, (3R)-4-[5-fluoro-2-(1-fluoro-3-methyl-6-{1-[(2R)-3-methyl-1-(piperazin-1-yl)butan-2-yl]azacyclobutan-3-yl}imidazo[1,5-a]pyridin-8-yl)benzoyl]-3-methylmorpholine] | 3.9 nM |  | 
C[C@@H]1COCCN1C(=O)c1cc(F)ccc1-c1cc(C2CN(CC3CCN(C(=O)C4(O)CC4)CC3)C2)cc2c1cnn2C [Example 171, 1-(4-{[3-(4-{4-fluoro-2-[(3R)-3-methylmorpholin-4-carbonyl]phenyl}-1-methyl-1H-indazol-6-yl)azacyclobutan-1-yl]methyl}piperidin-1-carbonyl)cyclopropan-1-ol] | 86 nM |  | 
COC[C@@H]1CN(CCC[C@@H](C(C)C)N2CC(c3cc(-c4ccc(F)cc4C(=O)N(C(C)C)C(C)C)c4cnc(C)n4c3)C2)CCN1 [Example 505-1] | 22 nM |  | 
CCN(C(=O)c1cc(F)ccc1-c1cc(C2CCN(C(=O)[C@H]3N[C@@H]4CC[C@H]3C4)C2)cc2c1cnn2C)C(C)C (stereo partly drawn) [Example 31, 2-(6-{1-[(1R,3S,4S)-2-azabicyclo[2.2.1]heptan-3-carbonyl]pyrrolidin-3-yl}-1-methyl-1H-indazol-4-yl)-N-ethyl-5-fluoro-N-(isopropyl)benzamide] | 275 nM |  | 
CCN(C(=O)c1cc(F)ccc1-c1cc(C2CN([C@H](CN3C[C@@H](O)[C@H](O)C3)C(C)C)C2)cn2c(C)ncc12)C(C)C [Example 446-1, 2-(6-{1-[(2S)-1-[(3R,4R)-3,4-dihydroxylpyrrolidin-1-yl]-3-methylbutan-2-yl]azacyclobutan-3-yl}-3-methylimidazo[1,5-a]pyridin-8-yl)-N-ethyl-5-fluoro-N-(isopropyl)benzamide] | 7.3 nM |  | 
CCN(C(=O)c1cc(F)ccc1-c1cc(N2CCN(C(=O)[C@@H]3CCCCN3)CC2)cn2c(C)ncc12)C(C)C [Example 81] |  |  | 188 nM
CCN(C(=O)c1cc(F)ccc1-c1cc(C2CN([C@@H](CN3CCN(C)CC3)C(C)C)C2)cc2c1cnn2C)C(C)C [Example 402-1, N-ethyl-5-fluoro-2-(1-methyl-6-{1-[(2R)-3-methyl-1-(4-methylpiperazin-1-yl)butan-2-yl]azacyclobutan-3-yl}-1H-indazol-4-yl)-N-(isopropyl)benzamide] | 110 nM |  | 
CCS(=O)(=O)N[C@H]1CC[C@H](CCN2CC(c3cc(-c4ccc(F)cc4C(=O)N4CCOC[C@H]4C)c4cnn(C)c4c3)C2)CC1 [Example 160] | 62 nM |  | 
CC(C)N(CC(F)F)C(=O)c1cc(F)ccc1-c1cc(C2CCN(C[C@@H]3CC[C@@H](NC(=O)OC(C)(C)C)CO3)C2)cc2c1cnn2C (stereo partly drawn) [Example 158] | 165 nM |  | 
CC(=O)N1CCN(CCC[C@H](C(C)C)N2CC(c3cc(-c4ccc(F)cc4C(=O)N4CCOC[C@H]4C)c4c(F)nc(C)n4c3)C2)CC1(C)C [Example 339] | 13 nM |  | 
CCN(C(=O)c1cc(F)ccc1-c1cc(C2CN(C(=O)[C@@H]3CCCN3)C2)cn2c(C)nc(Cl)c12)C(C)C [Example 125] |  |  | 26.5 nM
